In ChEMBL document CHEMBL1201862, “PubChem BioAssay data set” (2004):
Active and inactive are the calls of the source.

How the values were obtained:
MDCK = test: antiviral activity against H1N1 influenza, dose response, cell-based, strain KY136 (AID 540257); format: functional; settings: Canis lupus familiaris
[1] = molecular target: FAD-linked sulfhydryl oxidase ALR (Homo sapiens, UniProt P55789); test: ALR-catalysed DTT oxidation blockers – biochemical, H2O2 detection, luminescence, cherry-pick, dose response (AID 493248)
Chain of FAD-linked sulfhydryl oxidase ALR (P55789 whole entry): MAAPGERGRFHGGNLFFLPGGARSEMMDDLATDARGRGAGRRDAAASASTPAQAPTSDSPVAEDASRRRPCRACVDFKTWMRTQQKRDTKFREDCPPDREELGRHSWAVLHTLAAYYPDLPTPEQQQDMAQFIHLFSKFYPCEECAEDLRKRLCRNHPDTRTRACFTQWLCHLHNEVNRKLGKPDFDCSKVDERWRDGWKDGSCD

[2] = system: Streptococcus sp. 'group A'; test: Streptococcus pyogenes SK(-)GAS viability under kanamycin – luminescence, BacTiterGlo, confirmation, counter-screen for streptokinase expression inhibitor project, dose response (AID 1900); format: functional, organism-based
[3] = molecular target: Intestinal-type alkaline phosphatase (Mus musculus, UniProt P24822); test: PubChem AID 488875; format: functional
Chain of Intestinal-type alkaline phosphatase (Mus musculus, UniProt P24822) (P24822 whole entry): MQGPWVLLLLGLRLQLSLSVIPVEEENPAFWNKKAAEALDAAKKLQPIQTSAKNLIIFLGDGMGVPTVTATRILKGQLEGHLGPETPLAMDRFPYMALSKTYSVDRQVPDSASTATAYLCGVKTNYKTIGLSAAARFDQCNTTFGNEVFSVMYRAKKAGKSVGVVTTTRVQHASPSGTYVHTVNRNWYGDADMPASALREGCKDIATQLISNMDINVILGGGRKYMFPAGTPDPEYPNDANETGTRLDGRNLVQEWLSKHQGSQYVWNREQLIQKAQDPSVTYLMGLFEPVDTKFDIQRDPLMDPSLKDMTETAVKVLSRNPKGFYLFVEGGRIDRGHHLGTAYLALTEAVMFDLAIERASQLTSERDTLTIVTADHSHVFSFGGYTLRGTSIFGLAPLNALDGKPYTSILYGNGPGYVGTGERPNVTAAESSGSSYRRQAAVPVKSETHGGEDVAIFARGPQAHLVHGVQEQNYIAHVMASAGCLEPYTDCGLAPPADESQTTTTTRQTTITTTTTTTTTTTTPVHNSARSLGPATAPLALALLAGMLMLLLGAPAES

Streptokinase A = molecular target: T1, Streptokinase A (Streptococcus pyogenes serotype M1, UniProt P10520); test: viability-normalized secreted streptokinase activity reduction – plasminogen activation absorbance, OD405, dose response (AID 1914); format: functional, Streptococcus pyogenes M1 GAS;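 also: secreted streptokinase activity via plasminogen activation per viability signal from cell pellet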
T1 sequence (P10520 whole entry): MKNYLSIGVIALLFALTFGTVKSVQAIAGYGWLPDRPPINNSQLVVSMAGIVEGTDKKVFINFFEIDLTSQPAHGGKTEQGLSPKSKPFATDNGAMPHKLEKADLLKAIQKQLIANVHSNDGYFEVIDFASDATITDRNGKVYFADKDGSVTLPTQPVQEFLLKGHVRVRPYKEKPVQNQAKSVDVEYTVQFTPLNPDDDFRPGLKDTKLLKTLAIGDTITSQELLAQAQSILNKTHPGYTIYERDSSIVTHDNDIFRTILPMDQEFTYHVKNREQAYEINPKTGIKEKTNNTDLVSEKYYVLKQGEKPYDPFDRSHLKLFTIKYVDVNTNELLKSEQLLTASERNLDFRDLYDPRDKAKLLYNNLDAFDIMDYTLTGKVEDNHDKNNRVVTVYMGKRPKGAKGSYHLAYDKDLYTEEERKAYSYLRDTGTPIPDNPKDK

[4] = molecular target: T2, Alkaline phosphatase, tissue-nonspecific isozyme (Homo sapiens, UniProt P05186); test: activation of tissue-nonspecific alkaline phosphatase – biochemical, TNAP isozyme, human IAP uHTS hits, selectivity assay for human IAP activator project, dose response (AID 488886); format: functional;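 also: potency of compounds raising TNAP activity as a selectivity check on IAP activators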
T2 sequence (P05186 whole entry): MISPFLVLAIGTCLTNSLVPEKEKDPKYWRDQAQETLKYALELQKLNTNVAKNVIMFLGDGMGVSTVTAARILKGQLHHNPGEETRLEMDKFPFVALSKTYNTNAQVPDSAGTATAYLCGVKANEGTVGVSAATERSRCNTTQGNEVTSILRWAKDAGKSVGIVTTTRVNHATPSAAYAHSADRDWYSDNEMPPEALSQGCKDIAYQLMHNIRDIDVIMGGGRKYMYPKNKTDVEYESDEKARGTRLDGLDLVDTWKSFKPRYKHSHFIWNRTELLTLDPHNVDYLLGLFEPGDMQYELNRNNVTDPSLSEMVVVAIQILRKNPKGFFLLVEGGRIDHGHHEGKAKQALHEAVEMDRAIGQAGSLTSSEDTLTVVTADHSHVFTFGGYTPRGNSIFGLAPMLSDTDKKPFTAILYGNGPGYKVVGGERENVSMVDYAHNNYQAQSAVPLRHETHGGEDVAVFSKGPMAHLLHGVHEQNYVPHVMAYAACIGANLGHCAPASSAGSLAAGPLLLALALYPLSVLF

[5] = molecular target: T3, Intestinal-type alkaline phosphatase (Homo sapiens, UniProt P09923); test: activation of human intestinal alkaline phosphatase – biochemical, luminescent, uHTS hits, set 2, dose response (AID 488817); format: functional;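 also: potency of activators that raise enzyme activity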
T3 sequence (P09923 whole entry): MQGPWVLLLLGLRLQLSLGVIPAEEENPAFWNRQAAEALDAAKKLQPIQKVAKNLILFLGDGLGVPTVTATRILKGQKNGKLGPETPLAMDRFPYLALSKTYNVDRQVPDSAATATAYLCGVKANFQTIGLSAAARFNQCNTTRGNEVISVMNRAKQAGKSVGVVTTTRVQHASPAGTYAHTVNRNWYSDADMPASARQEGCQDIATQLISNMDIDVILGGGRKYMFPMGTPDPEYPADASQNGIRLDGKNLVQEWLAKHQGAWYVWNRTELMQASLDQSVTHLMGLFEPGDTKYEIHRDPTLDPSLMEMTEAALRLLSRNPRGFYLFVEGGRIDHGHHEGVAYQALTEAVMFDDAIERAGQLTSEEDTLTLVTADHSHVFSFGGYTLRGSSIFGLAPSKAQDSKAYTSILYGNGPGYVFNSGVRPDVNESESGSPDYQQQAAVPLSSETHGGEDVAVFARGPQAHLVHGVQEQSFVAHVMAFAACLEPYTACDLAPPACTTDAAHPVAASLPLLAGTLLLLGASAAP

[6] = molecular target: T3, Intestinal-type alkaline phosphatase; test: human intestinal alkaline phosphatase activators, dose response, biochemical, luminescence, uHTS hits (AID 463120); format: functional
Streptococcus = test: GAS UMAA2166 growth inhibition – luminescence, BacTiterGlo, counter-screen for streptokinase expression inhibitor project, dose response (AID 1915); format: functional, organism-based;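 also: potency for reduction of bacterial viability or growth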
[7] = molecular target: T4, High affinity choline transporter 1 (Homo sapiens, UniProt Q9GZV3); test: human choline transporter blockers, potency – cell-based, 5-point CRC, membrane potential dye, dose response (AID 504840); format: functional
T4 sequence (Q9GZV3 whole entry): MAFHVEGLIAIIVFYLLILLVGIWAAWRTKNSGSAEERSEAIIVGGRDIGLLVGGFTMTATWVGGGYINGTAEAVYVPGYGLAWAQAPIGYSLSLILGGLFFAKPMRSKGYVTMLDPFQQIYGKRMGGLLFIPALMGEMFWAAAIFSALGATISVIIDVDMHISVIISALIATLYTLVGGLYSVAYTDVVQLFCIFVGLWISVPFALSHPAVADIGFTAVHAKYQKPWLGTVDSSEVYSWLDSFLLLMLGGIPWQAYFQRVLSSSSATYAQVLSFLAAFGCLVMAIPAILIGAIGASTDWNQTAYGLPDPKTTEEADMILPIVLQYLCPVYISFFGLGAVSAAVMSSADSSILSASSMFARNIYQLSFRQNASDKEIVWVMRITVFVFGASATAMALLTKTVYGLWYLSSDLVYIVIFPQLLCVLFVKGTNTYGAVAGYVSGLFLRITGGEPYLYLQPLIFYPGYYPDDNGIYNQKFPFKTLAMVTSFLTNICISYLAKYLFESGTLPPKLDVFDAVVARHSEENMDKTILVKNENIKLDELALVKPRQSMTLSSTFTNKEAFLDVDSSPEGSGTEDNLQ

Keap1/Nrf2 = Keap1/Nrf2 (Homo sapiens, UniProt Q14145); test: disruptors of Keap1 binding to Nrf2 peptide – biochemical, fluorescence polarization, cherry-picked samples, dose response (AID 588683)
Chain of Keap1/Nrf2 (Q16236 whole entry): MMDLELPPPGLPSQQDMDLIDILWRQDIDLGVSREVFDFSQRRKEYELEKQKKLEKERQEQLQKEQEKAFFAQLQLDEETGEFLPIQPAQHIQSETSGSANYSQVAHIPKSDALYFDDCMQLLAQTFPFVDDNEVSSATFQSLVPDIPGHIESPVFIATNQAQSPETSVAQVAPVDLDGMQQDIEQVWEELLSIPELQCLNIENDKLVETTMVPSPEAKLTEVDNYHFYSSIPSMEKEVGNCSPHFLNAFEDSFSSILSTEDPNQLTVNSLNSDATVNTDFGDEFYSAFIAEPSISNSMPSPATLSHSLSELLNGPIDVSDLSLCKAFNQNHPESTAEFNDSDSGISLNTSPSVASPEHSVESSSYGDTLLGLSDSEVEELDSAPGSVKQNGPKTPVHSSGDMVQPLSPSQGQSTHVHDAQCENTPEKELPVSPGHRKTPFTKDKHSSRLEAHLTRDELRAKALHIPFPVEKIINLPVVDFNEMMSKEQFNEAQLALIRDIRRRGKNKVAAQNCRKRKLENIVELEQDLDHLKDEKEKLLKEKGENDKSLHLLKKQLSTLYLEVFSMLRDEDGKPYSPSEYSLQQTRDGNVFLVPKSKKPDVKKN
Chain of Keap1/Nrf2 (Q14145 whole entry): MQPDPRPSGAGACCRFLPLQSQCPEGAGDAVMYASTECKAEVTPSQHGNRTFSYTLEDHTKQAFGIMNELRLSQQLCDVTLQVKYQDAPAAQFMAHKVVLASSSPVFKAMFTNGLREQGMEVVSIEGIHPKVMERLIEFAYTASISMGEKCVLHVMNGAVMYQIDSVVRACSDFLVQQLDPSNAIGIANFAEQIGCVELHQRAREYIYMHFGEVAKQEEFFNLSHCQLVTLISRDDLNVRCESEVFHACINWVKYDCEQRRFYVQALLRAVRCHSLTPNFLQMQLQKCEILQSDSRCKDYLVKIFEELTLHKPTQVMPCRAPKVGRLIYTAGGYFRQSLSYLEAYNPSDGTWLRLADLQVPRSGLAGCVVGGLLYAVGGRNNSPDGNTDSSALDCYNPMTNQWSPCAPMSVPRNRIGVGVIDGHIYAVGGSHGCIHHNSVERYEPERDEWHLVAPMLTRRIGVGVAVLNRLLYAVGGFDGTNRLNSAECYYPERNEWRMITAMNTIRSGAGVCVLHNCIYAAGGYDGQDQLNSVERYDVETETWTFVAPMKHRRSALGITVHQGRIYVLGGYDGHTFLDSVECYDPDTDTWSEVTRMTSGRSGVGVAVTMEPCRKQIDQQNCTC

[8] = molecular target: T5, Corticotropin-releasing factor receptor 2/Corticotropin-releasing factor-binding protein (Homo sapiens, UniProt P24387+Q13324); test: activators of CRF receptor 2 with binding protein – uHTS hits, confirmation (AID 602473); format: functional; settings: read-out: EC50_Mean
T5 sequence (Q13324 whole entry): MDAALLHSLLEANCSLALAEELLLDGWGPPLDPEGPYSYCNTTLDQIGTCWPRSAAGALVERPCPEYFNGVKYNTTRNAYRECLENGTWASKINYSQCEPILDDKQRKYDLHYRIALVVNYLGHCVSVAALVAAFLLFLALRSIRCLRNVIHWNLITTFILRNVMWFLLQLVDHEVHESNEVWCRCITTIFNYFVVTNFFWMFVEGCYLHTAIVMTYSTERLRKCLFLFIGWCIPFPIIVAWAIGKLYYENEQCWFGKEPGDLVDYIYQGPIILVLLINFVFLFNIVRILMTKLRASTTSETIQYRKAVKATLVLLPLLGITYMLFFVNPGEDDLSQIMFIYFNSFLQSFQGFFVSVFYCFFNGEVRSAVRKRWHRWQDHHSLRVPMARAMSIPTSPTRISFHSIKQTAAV
T5 sequence (P24387 whole entry): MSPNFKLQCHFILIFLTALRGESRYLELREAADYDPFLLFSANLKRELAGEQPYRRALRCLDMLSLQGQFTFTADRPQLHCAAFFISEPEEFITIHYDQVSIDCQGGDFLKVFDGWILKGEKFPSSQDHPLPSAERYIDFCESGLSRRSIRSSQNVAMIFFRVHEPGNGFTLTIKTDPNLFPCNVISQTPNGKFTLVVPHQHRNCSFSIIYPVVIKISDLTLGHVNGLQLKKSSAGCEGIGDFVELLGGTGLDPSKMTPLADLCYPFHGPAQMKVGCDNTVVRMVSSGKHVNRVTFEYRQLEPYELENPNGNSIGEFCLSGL

[9] = molecular target: UDP-galactopyranose mutase (Mycobacterium tuberculosis, UniProt P9WIQ1); test: Inhibitors of Mycobacterium tuberculosis UDP-galactopyranose mutase (UGM) enzyme Measured in Biochemical System Using Plate Reader - 2105-02_Inhibitor_Dose_CherryPick_Activity. [Related pubchem assays (depositor defined):AID504439]
Chain of UDP-galactopyranose mutase (P9WIQ1 whole entry): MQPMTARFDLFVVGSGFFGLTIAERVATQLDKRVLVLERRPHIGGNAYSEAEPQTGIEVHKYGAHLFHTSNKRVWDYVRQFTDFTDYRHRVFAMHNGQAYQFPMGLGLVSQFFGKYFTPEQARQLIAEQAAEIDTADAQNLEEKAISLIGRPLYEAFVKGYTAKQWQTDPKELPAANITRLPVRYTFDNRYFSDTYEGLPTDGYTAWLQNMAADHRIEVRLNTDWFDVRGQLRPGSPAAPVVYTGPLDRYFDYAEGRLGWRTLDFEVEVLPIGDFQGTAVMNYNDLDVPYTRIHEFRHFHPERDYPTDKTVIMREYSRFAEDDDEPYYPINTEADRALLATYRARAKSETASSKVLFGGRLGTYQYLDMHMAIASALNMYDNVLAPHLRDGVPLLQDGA

Candida albicans = test: antifungal activity against resistant Candida strain – CaCi-8, fluconazole, Alamar Blue, dry powder, dose response (AID 488807); format: functional, organism-based
[10] = molecular target: Dual specificity protein phosphatase 6 (Rattus norvegicus, UniProt Q64346); format: functional;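 also: confirmatory in vitro dose-response testing of MKP-3 inhibition; recombinant His-tagged MKP-3 made in E. coli BL21 with OMFP substrate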
Chain of Dual specificity protein phosphatase 6 (Q64346 whole entry): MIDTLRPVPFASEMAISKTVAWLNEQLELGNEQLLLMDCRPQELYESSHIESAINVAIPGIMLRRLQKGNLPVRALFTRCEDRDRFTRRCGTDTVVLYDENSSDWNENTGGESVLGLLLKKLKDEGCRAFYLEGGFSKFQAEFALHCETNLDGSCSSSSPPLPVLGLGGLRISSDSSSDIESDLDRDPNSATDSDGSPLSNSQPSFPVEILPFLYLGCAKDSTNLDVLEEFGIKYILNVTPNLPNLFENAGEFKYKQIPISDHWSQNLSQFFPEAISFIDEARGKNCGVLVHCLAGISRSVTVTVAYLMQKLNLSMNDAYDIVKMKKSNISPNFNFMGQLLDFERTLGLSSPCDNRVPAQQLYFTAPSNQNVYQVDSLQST

[11] = molecular target: Dual specificity protein phosphatase 3 (Homo sapiens, UniProt P51452); test: SAR VHR1 Fluorescent Assay for In Vitro dose response studies Set 2. [Related pubchem assays (depositor defined):AID1654, AID1661, AID1878]; format: functional
Chain of Dual specificity protein phosphatase 3 (P51452 whole entry): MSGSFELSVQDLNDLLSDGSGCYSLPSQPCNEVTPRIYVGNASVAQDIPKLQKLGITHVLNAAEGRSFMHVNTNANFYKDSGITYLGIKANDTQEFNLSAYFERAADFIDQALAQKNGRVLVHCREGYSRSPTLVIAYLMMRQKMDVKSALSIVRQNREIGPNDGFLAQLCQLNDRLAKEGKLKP

[12] = molecular target: T6, Tyrosine-protein phosphatase non-receptor type 7 (Homo sapiens, UniProt P35236); test: redox-active compounds inhibiting HePTP phosphatase – biochemical, fluorescence, mechanism study (AID 2068); format: functional
T6 sequence (P35236 whole entry): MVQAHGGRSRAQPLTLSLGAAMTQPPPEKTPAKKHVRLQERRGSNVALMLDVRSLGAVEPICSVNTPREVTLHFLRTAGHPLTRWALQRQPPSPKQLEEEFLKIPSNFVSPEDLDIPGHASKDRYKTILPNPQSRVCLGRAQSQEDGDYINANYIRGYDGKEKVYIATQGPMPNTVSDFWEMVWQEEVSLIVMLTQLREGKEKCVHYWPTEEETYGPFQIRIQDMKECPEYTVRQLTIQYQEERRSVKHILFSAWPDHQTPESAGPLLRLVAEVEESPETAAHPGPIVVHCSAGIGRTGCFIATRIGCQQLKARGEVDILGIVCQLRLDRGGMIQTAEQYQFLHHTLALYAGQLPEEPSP

[13] = viability of uninfected HEp-2 cells – cell-based, HTS, cytotoxicity control for RSV inhibitor project, dose response (AID 2410); format: functional; settings: human respiratory syncytial virus
[14] = restored growth of temperature-sensitive Burl-1 yeast – whole organism, S. cerevisiae, Burl-1 ts mutant, luminescence, counter-screen for SUMOylation pathway inhibitor project, dose response (AID 463199); format: functional
[15] = viability loss of HMLE_sh_eGFP cells – cell-based, luminescence, counter-screen for HMLE_sh_ECad selective toxicity project, dose response (AID 463074); format: functional, Homo sapiens;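 also: HMLE human mammary epithelial cells expressing control shRNA against eGFP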
[16] = Luminescence Cell-Based Dose Retest to Confirm Inhibitors of Cancer Stem Cells. [Related pubchem assays (depositor defined):AID2717, AID2721]; format: functional; settings: Homo sapiens

For `Cc1ccc(N2C(=O)C(CC(=O)Nc3cccc(F)c3)N(C3CC3)C2=O)cc1` (centres undefined), which IC50 (MDCK) is on record?
The IC50 was 52.3 µM (active).

What about the AC50 [1] of the same compound?
The AC50 was < 0.014 µM (active).

For `Cc1cccc(CC(Cc2nc3ccccc3[nH]2)c2nc3ccccc3[nH]2)c1` (centres undefined), which EC50 [2] is on record?
Its EC50 is 9.33 µM (active).

What about the EC50 [3] of the same compound?
Its EC50 is 28.9 µM (active).

What about the EC50 (Streptokinase A) of the same compound?
The EC50 was > 150 µM (not active).

And the EC50 [4]?
Its EC50 is 62.1 µM (active).

And the EC50 [5]?
Its EC50 is 47.7 µM (active).

And the EC50 [6]?
The EC50 was 29.8 µM (active).

What about the EC50 (Streptococcus) of the same compound?
Its EC50 is 26.7 µM (active).

What about the IC50 [7] of the same compound?
The IC50 was 12.6 µM (active).

Which AC50 (Keap1/Nrf2) does the source give for `CN1/C(=C\C=C(C#N)C#N)C(C)(C)c2ccccc21` here?
Its AC50 is 28.7 µM (active).

And the EC50 [8]?
The EC50 was 10.8 µM (active).

What about the AC50 [9] of the same compound?
Its AC50 is 114 µM (active).

With `O=C(Cn1c2ccccc2c2nc3n(c(=O)c21)CCS3)N1CCCC1` as the compound, how does the AC50 (Candida albicans) read?
The AC50 was 2.91 µM (active).

What does the source list for `NS(=O)(=O)c1cc(C(=O)Nc2ccc3c(c2)CCC3)ccc1Cl`?
IC50 [10]: > 100 µM (inactive); IC50 [11]: > 100 µM (inactive); IC50 [12]: > 100 µM (inactive); CC50 [13]: 39 µM (active)

Which AC50 [14] does the source give for `CC(C)CCn1c(=O)c2ccccc2c2ccccc2c1=O` here?
The AC50 was 58.1 µM (active).

What does the source list for `Cc1ccc(N(C)S(=O)(=O)c2cccc(C(=O)Nc3nc4ccccc4[nH]3)c2)cc1`?
EC50 [2]: 1.71 µM (active); EC50 (Streptokinase A): > 150 µM (not active); AC50 [15]: 32.2 µM (active); EC50 (Streptococcus): 17.4 µM (active); AC50 [16]: 4.1 µM (active)
